{"source": "paper PMC11603219", "about": "“Novel Dibenzoazepine-Substituted Triazole Hybrids as Cholinesterase and Carbonic Anhydrase Inhibitors and Anticancer Agents: Synthesis, Characterization, Biological Evaluation, and In Silico Studies” (ACS Omega, 2024)", "key": {"[1]": {"test_system": "MDA-MB-231 cells", "assay": "MTT cytotoxicity assay, MDA-MB-231", "assay_type": "cell-based", "conditions": "Homo sapiens, 72 h treatment"}, "[2]": {"target": "hCA II (Homo sapiens, UniProt P00918)", "assay": "biochemical", "assay_type": "biochemical"}, "[3]": {"test_system": "BT-549 cells", "assay": "MTT cytotoxicity assay, BT-549", "assay_type": "cell-based, human", "conditions": "96 h treatment"}, "[4]": {"target": "T1, BChE from equine serum (Equus caballus, UniProt P81908)", "T1 construct": "from tissue; host or cells: equine serum", "T1 sequence (P81908 whole entry)": "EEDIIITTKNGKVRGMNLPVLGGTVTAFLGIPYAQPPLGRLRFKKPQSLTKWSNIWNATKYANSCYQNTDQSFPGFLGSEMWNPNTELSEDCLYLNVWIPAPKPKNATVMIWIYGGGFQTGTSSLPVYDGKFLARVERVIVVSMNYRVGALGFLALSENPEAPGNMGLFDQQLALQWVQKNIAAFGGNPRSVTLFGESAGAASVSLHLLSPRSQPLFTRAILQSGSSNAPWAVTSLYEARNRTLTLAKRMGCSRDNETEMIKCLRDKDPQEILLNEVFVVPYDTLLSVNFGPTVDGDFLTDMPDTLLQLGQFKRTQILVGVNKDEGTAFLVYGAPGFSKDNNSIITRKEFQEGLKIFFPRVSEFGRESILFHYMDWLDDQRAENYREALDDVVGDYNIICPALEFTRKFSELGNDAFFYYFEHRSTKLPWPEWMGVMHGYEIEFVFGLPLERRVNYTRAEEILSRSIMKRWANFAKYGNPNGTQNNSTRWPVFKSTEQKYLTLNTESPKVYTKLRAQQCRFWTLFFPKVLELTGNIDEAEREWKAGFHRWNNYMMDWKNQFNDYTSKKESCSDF", "assay": "biochemical", "assay_type": "biochemical", "procedure": "All of the measurements were repeated thrice. AChE and BChE activity were assessed using a modified version of the Ellman method.[48] The measurement of AChE/BChE activity was conducted with acetylthiocholine iodide/butyrylthiocholine iodide as substrates along with 5,5-dithiobis (2-nitrobenzoic) acid."}, "[5]": {"target": "hCA I (Homo sapiens, UniProt P00915)", "sequence (P00915 whole entry)": "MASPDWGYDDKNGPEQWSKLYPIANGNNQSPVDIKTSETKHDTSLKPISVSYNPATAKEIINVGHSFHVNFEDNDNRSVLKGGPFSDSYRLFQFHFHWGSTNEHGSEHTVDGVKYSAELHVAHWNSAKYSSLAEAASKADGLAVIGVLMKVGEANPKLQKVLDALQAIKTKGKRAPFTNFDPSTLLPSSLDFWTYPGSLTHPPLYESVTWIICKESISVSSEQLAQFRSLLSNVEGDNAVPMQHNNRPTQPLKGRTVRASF", "assay": "biochemical", "assay_type": "biochemical"}, "[6]": {"target": "AChE (Homo sapiens, UniProt P22303)", "sequence (P22303 32-614)": "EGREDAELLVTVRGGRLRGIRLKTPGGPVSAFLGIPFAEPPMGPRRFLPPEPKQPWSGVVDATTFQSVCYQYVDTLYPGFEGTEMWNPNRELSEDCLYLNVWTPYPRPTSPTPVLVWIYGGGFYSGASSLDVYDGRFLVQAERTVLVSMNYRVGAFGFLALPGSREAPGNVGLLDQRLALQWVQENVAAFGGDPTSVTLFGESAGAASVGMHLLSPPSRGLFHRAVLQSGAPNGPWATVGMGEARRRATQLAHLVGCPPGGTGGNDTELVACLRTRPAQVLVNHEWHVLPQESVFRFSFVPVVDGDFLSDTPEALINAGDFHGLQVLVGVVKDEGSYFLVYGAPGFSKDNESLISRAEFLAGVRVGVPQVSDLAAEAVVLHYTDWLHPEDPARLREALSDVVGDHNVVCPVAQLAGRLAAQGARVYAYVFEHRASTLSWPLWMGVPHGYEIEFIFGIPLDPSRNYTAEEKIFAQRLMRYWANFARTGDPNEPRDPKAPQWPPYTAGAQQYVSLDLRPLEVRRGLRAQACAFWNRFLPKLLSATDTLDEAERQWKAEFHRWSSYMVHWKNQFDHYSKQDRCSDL", "assay": "biochemical", "assay_type": "biochemical"}, "[7]": {"test_system": "BT-549 cells", "assay": "Colony formation inhibition assay", "assay_type": "cell-based, human", "conditions": "for colony formation inhibition: 10 μM, 20 μM, and 30 μM, 7–10 days"}, "[8]": {"conditions": "ratio of Ki versus tacrine (TAC/THA)"}}, "data": [{"smiles": "C1=Cc2ccccc2N(Cc2cn(Cc3ccccc3)nn2)c2ccccc21", "note": "[Compound 12, 5-((1-Benzyl-1H-1,2,3-triazol-4-yl)methyl)-5H-dibenzo[b,f]azepine]", "values": [{"measurement": "IC50", "setting": "[1]", "value": "12.5 ± 1.92", "unit": "µM"}, {"measurement": "Ki", "setting": "[2]", "value": "0.0405 ± 0.00585", "unit": "µM"}, {"measurement": "IC50", "setting": "[3]; Homo sapiens, BT-549, 96 h", "value": "33.5 ± 3.03", "unit": "µM"}, {"measurement": "Ki", "setting": "[4]", "value": "0.0488 ± 0.00862", "unit": "µM"}, {"measurement": "Ki", "setting": "[5]", "value": "0.0488 ± 0.00468", "unit": "µM"}, {"measurement": "Ki", "setting": "[6]", "value": "0.0289 ± 0.00352", "unit": "µM"}]}, {"smiles": "C1=Cc2ccccc2N(Cc2cn(-c3cccc4ccccc34)nn2)c2ccccc21", "note": "[Compound 13, 5-((1-(Naphthalen-1-yl)–1H-1,2,3-triazol-4-yl)methyl)-5H-dibenzo[b,f]azepine]", "values": [{"measurement": "IC50", "setting": "[1]", "value": "> 125", "unit": "µM"}, {"measurement": "Ki", "setting": "[2]", "value": "0.0288 ± 0.00464", "unit": "µM"}, {"measurement": "IC50", "setting": "[3]; Homo sapiens, BT-549, 96 h", "value": "> 40", "unit": "µM"}, {"measurement": "Ki", "setting": "[4]", "value": "0.00115 ± 0.00015", "unit": "µM"}, {"measurement": "times more inhibition effect than compound 12, BChE", "setting": "[4]; ratio of Ki versus compound 12", "value": "approximately 42.48 times"}, {"measurement": "fold more active than tacrine for BChE", "setting": "[4]; [8]", "value": 49.70, "unit": "fold"}, {"measurement": "times more inhibition effect, BChE, compound 18 comparison", "setting": "[4]; ratio of Ki, compound 13 and compound 18", "value": 34.04, "unit": "times"}, {"measurement": "Ki", "setting": "[5]", "value": "0.0621 ± 0.00853", "unit": "µM"}, {"measurement": "Ki", "setting": "[6]", "value": "0.0141 ± 0.00381", "unit": "µM"}, {"measurement": "fold more active than tacrine for AChE", "setting": "[6]; [8]", "value": 5.49, "unit": "fold"}]}, {"smiles": "C1=Cc2ccccc2N(Cc2cn(-c3cccnc3)nn2)c2ccccc21", "note": "[Compound 14, 5-((1-(Pyridin-3-yl)-1H-1,2,3-triazol-4-yl)methyl)-5H-dibenzo[b,f]azepine]", "values": [{"measurement": "IC50", "setting": "[1]", "value": "> 75", "unit": "µM"}, {"measurement": "Ki", "setting": "[2]", "value": "0.0177 ± 0.00154", "unit": "µM"}, {"measurement": "fold more active than acetazolamide for hCA II", "setting": "[2]; ratio of Ki versus AZA", "value": 5.79, "unit": "fold"}, {"measurement": "IC50", "setting": "[3]", "value": "16.6 ± 0.97", "unit": "µM"}, {"measurement": "IC50", "setting": "[3]; Homo sapiens, BT-549, 96 h", "value": "≤ 20", "unit": "µM"}, {"measurement": "Ki", "setting": "[4]", "value": "0.00765 ± 0.00149", "unit": "µM"}, {"measurement": "concentration at which BT-549 colonies were inhibited/suppressed", "setting": "[7]", "value": 10, "unit": "µM"}, {"measurement": "colony formation inhibition", "setting": "[7]", "value": "suppressed the colonies"}, {"measurement": "Ki", "setting": "[5]", "value": "0.0299 ± 0.00593", "unit": "µM"}, {"measurement": "fold more active than acetazolamide for hCA I", "setting": "[5]; ratio of Ki versus AZA", "value": 4.16, "unit": "fold"}, {"measurement": "Ki", "setting": "[6]", "value": "0.0212 ± 0.00587", "unit": "µM"}]}, {"smiles": "COc1ccc(-n2cc(CN3c4ccccc4C=Cc4ccccc43)nn2)cc1", "note": "[Compound 15, 5-((1-(4-Methoxyphenyl)-1H-1,2,3-triazol-4-yl)methyl)-5H-dibenzo[b,f]azepine]", "values": [{"measurement": "IC50", "setting": "[1]", "value": "> 150", "unit": "µM"}, {"measurement": "Ki", "setting": "[2]", "value": "0.0391 ± 0.00217", "unit": "µM"}, {"measurement": "IC50", "setting": "[3]; Homo sapiens, BT-549, 96 h", "value": "26.8 ± 4.6", "unit": "µM"}, {"measurement": "Ki", "setting": "[4]", "value": "0.00411 ± 0.00046", "unit": "µM"}, {"measurement": "concentration at which BT-549 colonies were inhibited/suppressed", "setting": "[7]", "value": 20, "unit": "µM"}, {"measurement": "colony formation inhibition", "setting": "[7]", "value": "suppressed the colonies"}, {"measurement": "Ki", "setting": "[5]", "value": "0.0547 ± 0.00963", "unit": "µM"}, {"measurement": "Ki", "setting": "[6]", "value": "0.0241 ± 0.00045", "unit": "µM"}]}, {"smiles": "O=c1ccc2ccc(OCCn3cc(CN4c5ccccc5C=Cc5ccccc54)nn3)cc2o1", "note": "[Compound 16, 7-(2-(4-((5H-Dibenzo[b,f]azepin-5-yl)methyl)-1H-1,2,3-triazol-1-yl)ethoxy)-2H-chromen-2-one]", "values": [{"measurement": "IC50", "setting": "[1]", "value": "> 150", "unit": "µM"}, {"measurement": "Ki", "setting": "[2]", "value": "0.0546 ± 0.00199", "unit": "µM"}, {"measurement": "IC50", "setting": "[3]", "value": "17.7 ± 2.54", "unit": "µM"}, {"measurement": "IC50", "setting": "[3]; Homo sapiens, BT-549, 96 h", "value": "≤ 20", "unit": "µM"}, {"measurement": "Ki", "setting": "[4]", "value": "0.0112 ± 0.00155", "unit": "µM"}, {"measurement": "colony formation inhibition", "setting": "[7]", "value": "suppressed the colonies"}, {"measurement": "Ki", "setting": "[5]", "value": "0.122 ± 0.0202", "unit": "µM"}, {"measurement": "Ki", "setting": "[6]", "value": "0.0175 ± 0.00219", "unit": "µM"}]}, {"smiles": "NS(=O)(=O)c1ccc(-n2cc(CN3c4ccccc4C=Cc4ccccc43)nn2)cc1", "note": "[Compound 17, 4-(4-((5H-Dibenzo[b,f]azepin-5-yl)methyl)-1H-1,2,3-triazol-1-yl)benzenesulfonamide]", "values": [{"measurement": "IC50", "setting": "[1]", "value": "36.5 ± 1.62", "unit": "µM"}, {"measurement": "Ki", "setting": "[2]", "value": "0.0567 ± 0.0115", "unit": "µM"}, {"measurement": "IC50", "setting": "[3]", "value": "17.4 ± 3.09", "unit": "µM"}, {"measurement": "IC50", "setting": "[3]; Homo sapiens, BT-549, 96 h", "value": "≤ 20", "unit": "µM"}, {"measurement": "Ki", "setting": "[4]", "value": "0.0153 ± 0.00112", "unit": "µM"}, {"measurement": "concentration at which BT-549 colonies were inhibited/suppressed", "setting": "[7]", "value": 20, "unit": "µM"}, {"measurement": "colony formation inhibition", "setting": "[7]", "value": "suppressed the colonies"}, {"measurement": "Ki", "setting": "[5]", "value": "0.0405 ± 0.0111", "unit": "µM"}, {"measurement": "Ki", "setting": "[6]", "value": "0.019 ± 0.00544", "unit": "µM"}]}, {"smiles": "O=[N+]([O-])c1ccc(-n2cc(CN3c4ccccc4C=Cc4ccccc43)nn2)cc1", "note": "[Compound 18, 5-((1-(4-Nitrophenyl)-1H-1,2,3-triazol-4-yl)methyl)-5H-dibenzo[b,f]azepine]", "values": [{"measurement": "IC50", "setting": "[1]", "value": "> 150", "unit": "µM"}, {"measurement": "Ki", "setting": "[2]", "value": "0.0697 ± 0.00593", "unit": "µM"}, {"measurement": "IC50", "setting": "[3]; Homo sapiens, BT-549, 96 h", "value": "> 40", "unit": "µM"}, {"measurement": "Ki", "setting": "[4]", "value": "0.0391 ± 0.00882", "unit": "µM"}, {"measurement": "Ki", "setting": "[5]", "value": "0.118 ± 0.021", "unit": "µM"}, {"measurement": "Ki", "setting": "[6]", "value": "0.0447 ± 0.00961", "unit": "µM"}]}, {"smiles": "COc1cc(-n2cc(CN3c4ccccc4C=Cc4ccccc43)nn2)cc(OC)c1OC", "note": "[Compound 19, 5-((1-(3,4,5-Trimethoxyphenyl)-1H-1,2,3-triazol-4-yl)methyl)-5H-dibenzo[b,f]azepine]", "values": [{"measurement": "IC50", "setting": "[1]", "value": "> 150", "unit": "µM"}, {"measurement": "Ki", "setting": "[2]", "value": "0.0614 ± 0.00911", "unit": "µM"}, {"measurement": "IC50", "setting": "[3]", "value": "18.1 ± 2.14", "unit": "µM"}, {"measurement": "IC50", "setting": "[3]; Homo sapiens, BT-549, 96 h", "value": "≤ 20", "unit": "µM"}, {"measurement": "Ki", "setting": "[4]", "value": "0.00222 ± 0.00017", "unit": "µM"}, {"measurement": "concentration at which BT-549 colonies were inhibited/suppressed", "setting": "[7]", "value": 20, "unit": "µM"}, {"measurement": "colony formation inhibition", "setting": "[7]", "value": "suppressed the colonies"}, {"measurement": "Ki", "setting": "[5]", "value": "0.094 ± 0.0155", "unit": "µM"}, {"measurement": "Ki", "setting": "[6]", "value": "0.0345 ± 0.00854", "unit": "µM"}]}, {"smiles": "Oc1ccccc1-n1cc(CN2c3ccccc3C=Cc3ccccc32)nn1", "note": "[Compound 20, 2-(4-((5H-Dibenzo[b,f]azepin-5-yl)methyl)-1H-1,2,3-triazol-1-yl)phenol]", "values": [{"measurement": "IC50", "setting": "[1]", "value": "> 100", "unit": "µM"}, {"measurement": "Ki", "setting": "[2]", "value": "0.0894 ± 0.00492", "unit": "µM"}, {"measurement": "IC50", "setting": "[3]; Homo sapiens, BT-549, 96 h", "value": "36.2 ± 3.77", "unit": "µM"}, {"measurement": "Ki", "setting": "[4]", "value": "0.0162 ± 0.00243", "unit": "µM"}, {"measurement": "Ki", "setting": "[5]", "value": "0.0804 ± 0.0156", "unit": "µM"}, {"measurement": "Ki", "setting": "[6]", "value": "0.0228 ± 0.00478", "unit": "µM"}]}]}
